Laboratory results from the RepoRT retention time repository.
Counter-ions that a name gives are not always drawn.

Assay: RP, Waters ACQUITY Premier BEH C18, 100 × 2.1 mm, 1.7 µm, 40 °C, 0.3 to 0.4 mL/min, estimated dead time 0.73 min; A: water + 0.1% formic acid; B: acetonitrile + 0.1% formic acid; gradient (min/%B) 0/0.5 0.1/0.5 10/80 10.1/99.5 12/0.5 12.1/0.5 14.5/0.5
Conditions: stereoisomer not certain

Compound | LC retention time [min]
CC1C(=O)OC2C(O)C34C5OC(=O)C3(OC3OC(=O)C(O)C34C(C(C)(C)C)C5O)C12O (stereo unspecified) [GINKGOLIDE C] | 4.74
Cc1cc(C(=O)O)ccc1O [4-HYDROXY-3-METHYLBENZOIC ACID] | 4.47
Cc1c(O)cc2c(c1C)OC(C)(CCC(=O)O)CC2 (stereo unspecified) [GAMMA-CEHC] | 6.69
COc1c2ccoc2cc2oc(=O)ccc12 [BERGAPTEN] | 6.74
CC(=O)OCC[N+](C)(C)C [ACETYLCHOLINE] | 0.961
OCC(Cc1cccc(O)c1)C(CO)Cc1cccc(O)c1 (stereo unspecified) [ENTERODIOL] | 5.95
NC(N)=NCCCC(=O)O [4-GUANIDINOBUTANOATE] | 1.35
COc1cc(CCN)ccc1O [3-METHOXYTYRAMINE] | 3.47
NC1CCSC1=O (stereo unspecified) [HOMOCYSTEINE THIOLACTONE] | 0.939
CC(C=CC=C(C)C=CC1=C(C)C(=O)CCC1(C)C)=CC=CC=C(C)C=CC=C(C)C=CC1=C(C)C(=O)CCC1(C)C [CANTHAXANTHIN] | 11.3
O=c1cc(-c2ccc(O)cc2)oc2cc(OC3OC(CO)C(O)C(O)C3O)cc(O)c12 (stereo unspecified) [COSMOSIIN] | 4.75
CCC(C)C(=O)C(=O)O (stereo unspecified) [3-METHYL-2-OXOVALERATE] | 4.42
COc1cc(C=CC(=O)O)ccc1O [FERULATE] | 5.17
C=C(C)C1Cc2c(ccc3c2OC2COc4cc(OC)c(OC)cc4C2C3=O)O1 (stereo unspecified) [ROTENONE] | 7.55
COc1ccc(O)c(C(=O)O)c1 [5-METHOXYSALICYLIC ACID] | 5.46
O=C(O)C(O)Cc1ccc(O)cc1 (stereo unspecified) [HYDROXYPHENYLLACTATE] | 4.05
COc1ccc(C2CC(=O)c3c(O)cc(OC4OC(CO)C(O)C(O)C4OC4OC(C)C(O)C(O)C4O)cc3O2)cc1O (stereo unspecified) [HESPERETIN 7-NEOHESPERIDOSIDE] | 4.83
N[C@@H](Cc1ccc(O)c([N+](=O)[O-])c1)C(=O)O [3-NITRO-L-TYROSINE] | 3.8
CCCCCC(O)CC(=O)CCc1ccc(O)c(OC)c1 (stereo unspecified) [GINGEROL] | 7.34
Cc1cc2nc3c(=O)[nH]c(=O)nc-3n(CC(O)C(O)C(O)COP(=O)(O)O)c2cc1C (stereo unspecified) [FLAVIN MONONUCLEOTIDE] | 3.73
Cc1cc2nc3c(=O)[nH]c(=O)nc-3n(CC(O)C(O)C(O)COP(=O)(O)OP(=O)(O)OCC3OC(n4cnc5c(N)ncnc54)C(O)C3O)c2cc1C (stereo unspecified) [FAD] | 4.15
O=C(O)CCCCCC(=O)O [6-CARBOXYHEXANOATE] | 4.46
C=C1CC2(O)OC3(CC2C(C)C)C(C)CCC13 (stereo unspecified) [CURCUMOL] | 7.93
Cn1c(=O)[nH]c2nc[nH]c2c1=O [1-METHYLXANTHINE] | 1.42
CCCCCCCCC=CCCCCCCCC(=O)O [ELAIDATE] | 10

Compound | LC retention time [min]
Nc1nc2c(ncn2C2OC3COP(=O)(O)OC3C2O)c(=O)[nH]1 (stereo unspecified) [CYCLIC GMP] | 3.35
O=C(O)CCCCC(=O)O [ADIPATE] | 3.99
O=c1c(-c2ccc(O)cc2)coc2cc(OC3OC(CO)C(O)C(O)C3O)ccc12 (stereo unspecified) [DAIDZIN] | 4.08
CC1CNC(=O)NC1=O (stereo unspecified) [DIHYDROTHYMINE] | 1.26
O=c1cc(-c2ccc(O)c(-c3c(O)cc(O)c4c(=O)cc(-c5ccc(O)cc5)oc34)c2)oc2cc(O)cc(O)c12 [AMENTOFLAVONE] | 6.35
CC(O)CCCC(=O)O (stereo unspecified) [5-HYDROXYHEXANOIC ACID] | 3.96
CSCCC(O)C(=O)O (stereo unspecified) [2-HYDROXY-4-(METHYLTHIO)BUTANOATE] | 4.06
CCCC(=O)OC(CC(=O)[O-])C[N+](C)(C)C (stereo unspecified) [BUTYRYLCARNITINE] | 3.89
O=C(O)CCCCC1SCC2NC(=O)NC21 (stereo unspecified) [BIOTIN] | 4.59
Nc1nc2c(ncn2C2OC(CO)C(O)C2O)c(=O)[nH]1 (stereo unspecified) [GUANOSINE] | 3.37
Nc1nc2c(ncn2C2CC(O)C(CO)O2)c(=O)[nH]1 (stereo unspecified) [DEOXYGUANOSINE] | 3.39
O=C(O)CC1C(=O)Nc2ccccc21 (stereo unspecified) [3-OXINDOLE-3-ACETATE] | 4.29
Cn1cnc(=N)c2[nH]cnc21 [3-METHYLADENINE] | 0.904
O=C(O)CCCCCCCO [8-HYDROXYOCTANOATE] | 5.04
CC(=O)Nc1c(NC=O)[nH]c(=O)n(C)c1=O [5-ACETYLAMINO-6-FORMYLAMINO-3-METHYLURACIL] | 1.11
CCCCCC(=O)NCC(=O)O [HEXANOYLGLYCINE] | 5.2
Cc1cnc(=O)[nH]c1N [5-METHYLCYTOSINE] | 0.94
CCC(O)C(=O)O (stereo unspecified) [2-HYDROXYBUTYRATE] | 2.82
O=C(C=Cc1ccc(O)c(O)c1)OC1C(O)CC(O)(C(=O)O)CC1O (stereo unspecified) [CRYPTOCHLOROGENIC ACID] | 3.67
CC1CCC2(C(=O)O)CCC3(C)C(=CCC4C5(C)CC(O)C(O)C(C)(CO)C5CCC43C)C2C1C (stereo unspecified) [ASIATIC ACID] | 7.17
Cc1cc(O)c2c(c1)C(=O)c1cc(O)cc(O)c1C2=O [EMODIN] | 7.52
O=C(OC1Cc2c(O)cc(O)cc2OC1c1cc(O)c(O)c(O)c1)c1cc(O)c(O)c(O)c1 (single isomer, unassigned; (-)) [(-)-EPIGALLOCATECHIN-3-GALLATE] | 3.98
CS(=O)CCCN=C=S (stereo unspecified) [3-METHYLSULFINYLPROPYL ISOTHIOCYANATE] | 4.1
Nc1ncnc2c1ncn2C1CC(O)C(COP(=O)(O)O)O1 (stereo unspecified) [DEOXYADENOSINE MONOPHOSPHATE] | 2.07

Next, values leading:

LC retention time [min] | Compound
7.43 | CCC=CCC1C(=O)CCC1CC(=O)OC (stereo unspecified) [METHYL JASMONATE]
0.913 | CC1OC(O)C(O)C(O)C1O (stereo unspecified) [RHAMNOSE]
4.61 | O=c1ccc2ccc(O)cc2o1 [UMBELLIFERONE]
3.75 | CC(CC(=O)O)C(=O)O (stereo unspecified) [METHYLSUCCINIC ACID]
4.05 | CC(CC(=O)O)CC(=O)O [METHYGLUTARATE]
5.71 | CC(=O)Oc1cccc(O)c1 [RESORCINOL MONOACETATE]
4.02 | CC(C)CC(=O)C(=O)O [KETOLEUCINE]
4.39 | CC(C)CC(=O)OC(CC(=O)[O-])C[N+](C)(C)C (stereo unspecified) [ISOVALERYLCARNITINE]
6.98 | CC(CCC(=O)O)C1CCC2C3C(O)C(O)C4CC(O)CCC4(C)C3CCC12C (stereo unspecified) [HYOCHOLIC ACID]
8.27 | CC(CCC(=O)O)C1CCC2C3CCC4CC(O)CCC4(C)C3CCC12C (stereo unspecified) [LITHOCHOLATE]
1.26 | O=c1ccn(C2OC(COP(=O)(O)O)C(O)C2O)c(=O)[nH]1 (stereo unspecified) [URIDINE MONOPHOSPHATE]
4.21 | O=C(O)CNC(=O)Cc1ccccc1 [PHENYLACETYLGLYCINE]
1.61 | O=C(O)c1cccnc1C(=O)O [QUINOLINATE]
1.39 | O=C(O)C=Cc1cnc[nH]1 [UROCANATE]
0.998 | CC(=O)NCCc1cnc[nH]1 [N-ACETYLHISTAMINE]
1.17 | O=S(=O)(O)Oc1ccccc1 [PHENOL SULFATE]
1.39 | O=c1cc[nH]c(=O)[nH]1 [URACIL]
7.51 | CCCCCCCCCCCCCCCC(O)C(N)CO (stereo unspecified) [SPHINGANINE]
4.42 | CC(=O)NCCc1c[nH]c2ccc(O)cc12 [N-ACETYLSEROTONIN]
3.95 | COC(=O)CCCC(=O)O [MONOMETHYLGLUTARATE]
1.19 | O=C(O)c1cc(=O)[nH]c(=O)[nH]1 [OROTATE]

LC retention time [min] | Compound
3.51 | NCc1[nH]cc(CCC(=O)O)c1CC(=O)O [PORPHOBILINOGEN]
3.75 | O=c1c2cc(O)c(O)cc2oc2cc(O)c(C3OC(CO)C(O)C(O)C3O)c(O)c12 (stereo unspecified) [MANGIFERIN]
1.7 | N[C@@H](Cc1ccc(O)c(O)c1)C(=O)O [L-DOPA]
1.52 | O=c1[nH]c(=O)c2[nH]c(=O)[nH]c2[nH]1 [URATE]
3.64 | C[N+](C)(C)C(Cc1c[nH]c2ccccc12)C(=O)[O-] (stereo unspecified) [LENTICIN]
1.68 | NC(CCOC(=O)CCC(=O)O)C(=O)O (stereo unspecified) [O-SUCCINYL-HOMOSERINE]
1.02 | Nc1nc2[nH]c(=O)cnc2c(=O)[nH]1 [ISOXANTHOPTERIN]
1.17 | O=c1cc(CO)occ1O [KOJIC ACID]
5.31 | CC(=O)NC(Cc1c[nH]c2ccccc12)C(=O)O (stereo unspecified) [N-ACETYLTRYPTOPHAN]
4.59 | CC1OC(OCC2OC(Oc3cc(O)c4c(c3)OC(c3ccc(O)cc3)CC4=O)C(O)C(O)C2O)C(O)C(O)C1O (stereo unspecified) [NARIRUTIN]
6.99 | COc1ccc(-c2cc(=O)c3c(OC)c(OC)c(OC)c(OC)c3o2)cc1OC [NOBILETIN]
2.73 | Cc1cn(C2CC(O)C(COP(=O)(O)O)O2)c(=O)[nH]c1=O (stereo unspecified) [THYMIDINE-MONOPHOSPHATE]
4.57 | Cc1ccc(OS(=O)(=O)O)cc1 [P-CRESOL SULFATE]
3.72 | CC(C)(CO)C(O)C(=O)NCCC(=O)O (stereo unspecified) [PANTOTHENATE]
4.14 | O=c1cc[nH]c2c(O)cccc12 [QUINOLINE-4,8-DIOL]
1.42 | O=C(O)c1cccnc1 [NICOTINATE]
11 | CCCCCCCCCCCCCCCCCC(=O)O [STEARATE]
4.62 | COc1cc2ccc(=O)oc2cc1O [SCOPOLETIN]
5.6 | O=c1c(O)c(-c2ccc(O)c(O)c2)oc2cc(O)cc(O)c12 [QUERCETIN]
4.41 | O=C(O)C1OC(Oc2c(-c3ccc(O)c(O)c3)oc3cc(O)cc(O)c3c2=O)C(O)C(O)C1O (stereo unspecified) [QUERCETIN 3-O-GLUCURONIDE]
3.9 | NC(=O)[C@@H](N)Cc1c[nH]c2ccccc12 [L-TRYPTOPHANAMIDE]
